Experimental findings from patent publication EP4527828A1, “BIPHENYL COMPOUND, PHARMACEUTICAL COMPOSITION, METHOD FOR PREPARING SAME, AND USE THEREOF” (Longivitron (Suzhou) Biotechnology Co., Ltd, priority 2022, dated 2023) are described below.

A value given as a limit tells only on which side of the number the result lay.

One assay addresses T1, LAG3/MHCII (Homo sapiens, UniProt P18627).
T1 sequence (P18627 23-450 limits assumed): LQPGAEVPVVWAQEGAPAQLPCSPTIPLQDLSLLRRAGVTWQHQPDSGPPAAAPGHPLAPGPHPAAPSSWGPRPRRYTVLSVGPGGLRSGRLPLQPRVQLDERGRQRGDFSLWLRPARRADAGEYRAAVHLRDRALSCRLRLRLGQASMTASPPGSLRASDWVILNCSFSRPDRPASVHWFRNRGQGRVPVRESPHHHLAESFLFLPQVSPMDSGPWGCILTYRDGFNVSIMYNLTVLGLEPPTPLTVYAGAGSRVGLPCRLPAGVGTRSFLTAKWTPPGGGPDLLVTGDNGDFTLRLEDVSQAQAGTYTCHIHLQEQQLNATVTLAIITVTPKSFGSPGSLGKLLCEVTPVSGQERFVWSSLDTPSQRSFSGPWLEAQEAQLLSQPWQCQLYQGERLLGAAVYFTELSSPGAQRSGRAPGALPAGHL
In words: HTRF binding inhibition of LAG3 and its ligand MHCII. The conditions noted are these: for inhibition at 10 µM: compound at 10 µM, read-out: Inhibition rate; for IC50: binding inhibition LAG3/MHCII. The protocol:
HTRF (Homogeneous time-resolved fluorescence) is based on two techniques, fluorescence resonance energy transfer (FRET) and time-resolved fluorescence (TRF). The detection was carried out using a 384-well plate. 2 µL of a compound to be tested with an appropriate concentration was collected, 4 µL of Tag1-LAG3 protein (with a final concentration of 10 nmol·L^-1) was added, 4 µL of Tag2-MHCII (with a final concentration of 20 nmol·L^-1) was added, and the plate was incubated at room temperature for 15 min. 10 µL of Anti-Tag1-Tb working solution (prepared by adding 25 µL of Anti-Tag1-Tab mother solution to 2475 µL of dilution buffer) was added, 10 µL of Anti-Tag2-XL665 working solution (prepared by adding 25 µL of Tag2-XL665 mother solution to 2475 µL of dilution buffer) was added, and the plate was sealed with a film and incubated at room temperature for 1 h. The detection was carried out using a Perkin Elma Envision instrument.

The target in the next assay is T2, Human LAG3 protein (Homo sapiens, UniProt P18627).
T2 sequence (P18627 23-525): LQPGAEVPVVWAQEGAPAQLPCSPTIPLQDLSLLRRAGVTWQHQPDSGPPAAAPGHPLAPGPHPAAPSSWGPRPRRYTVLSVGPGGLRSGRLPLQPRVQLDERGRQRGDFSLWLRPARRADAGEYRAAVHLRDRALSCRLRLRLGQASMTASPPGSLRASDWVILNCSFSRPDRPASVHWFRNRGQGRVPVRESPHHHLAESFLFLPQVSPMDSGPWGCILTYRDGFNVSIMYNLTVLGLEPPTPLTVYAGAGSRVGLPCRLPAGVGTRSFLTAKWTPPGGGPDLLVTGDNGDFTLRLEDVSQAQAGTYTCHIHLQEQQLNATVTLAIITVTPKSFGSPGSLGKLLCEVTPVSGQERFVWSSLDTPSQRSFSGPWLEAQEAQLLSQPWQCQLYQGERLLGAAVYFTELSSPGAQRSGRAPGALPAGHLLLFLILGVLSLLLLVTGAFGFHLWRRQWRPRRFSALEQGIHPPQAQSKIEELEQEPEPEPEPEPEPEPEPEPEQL
In words: SPR interaction assay, CM5 chip amino coupling, human LAG3. Type of assay: binding. The source says:
(§1) A surface plasmon is an electromagnetic wave on a metal surface and is generated by the interaction of photons and electrons which are freely vibrated. Surface plasmon resonance (SPR) is an optical phenomenon that occurs on the surfaces of two media, and such a phenomenon can be induced by photons or electrons. When light enters an optically thinner medium from an optically denser medium, the phenomenon of total reflection occurs, and an evanescent wave is generated and enters the optically thinner medium. When the totally reflected evanescent wave meets the plasmon wave on the metal surface, resonance may occur, the energy of the reflected light decreases, and a resonance peak occurs on the energy spectrum of the reflected light. Such a resonance is called surface plasmon resonance. The angle of incidence causing the surface plasmon resonance is called an SPR angle. An SPR biosensor provides a sensitive, non-labeled detection technique for monitoring intermolecular interactions in real time. The sensor detects the change in the SPR angle, and the SPR is related to the refractive index of the metal surface. When an analyte binds to the chip surface, the refractive index of the chip surface changes, thus causing the change in the SPR angle. This is the basic principle for the SPR biosensor to detect intermolecular interactions in real time. During the interaction analysis, the change in the SPR angle is recorded on the sensorgram in real time.
(§2) Through the information query, the theoretical isoelectric point of the LAG3 protein is about 9.82, and the amino coupling method was contemplated to immobilize the protein. Since the main ligands of the LAG3 protein are FGL1 and MHCII proteins, after the LAG3 protein was coupled, the FGL1 protein sampling method was used to verify the protein activity.
(§3) Protein coupling buffer solution: 1.05× PBS-P+; 1.02× PBS-P+
(§4) Interaction buffer solution: 1.0× PBS-P+, 5% DMSO; 1.0× PBS-P+, 2% DMSO
(§5) In this experiment, by using the CM5 chip amino coupling method, the human LAG3 protein was immobilized to the Fc2 or Fc3 channel, and the mouse LAG3 protein was immobilized to the Fc3 or Fc4 channel.
(§6) LAG3 protein coupling conditions were as follows: the concentration was about 25 µg/mL, the system was sodium acetate solution with a pH of 5.5, the chip activation time was 420 s, and the blocking time was 420 s.
(§7) LAG3 protein coupling conditions were as follows: the concentration was about 50 µg/mL, the system was sodium acetate solution with a pH of 4.5, the chip activation time was 420 s, and the blocking time was 420 s.

The target in a further assay is T3, Mouse LAG3 protein (Mus musculus, UniProt Q61790).
T3 sequence (Q61790 24-521): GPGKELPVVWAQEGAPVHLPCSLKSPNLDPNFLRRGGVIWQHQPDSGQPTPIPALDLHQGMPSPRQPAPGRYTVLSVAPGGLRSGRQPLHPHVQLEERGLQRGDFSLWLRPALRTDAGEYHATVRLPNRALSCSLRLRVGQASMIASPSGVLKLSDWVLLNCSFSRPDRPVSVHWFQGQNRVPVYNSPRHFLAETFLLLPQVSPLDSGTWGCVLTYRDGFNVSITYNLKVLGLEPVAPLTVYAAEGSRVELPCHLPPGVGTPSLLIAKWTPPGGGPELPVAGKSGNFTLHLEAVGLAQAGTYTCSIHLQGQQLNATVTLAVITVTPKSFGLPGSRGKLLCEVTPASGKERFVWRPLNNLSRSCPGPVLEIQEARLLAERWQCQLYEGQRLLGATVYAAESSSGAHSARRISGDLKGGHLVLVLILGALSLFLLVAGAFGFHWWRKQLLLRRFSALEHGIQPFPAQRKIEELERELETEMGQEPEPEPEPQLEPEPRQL
In words: SPR interaction assay, CM5 chip amino coupling, mouse LAG3. Type of assay: binding.
Text: as §1, §2, §3, §4, §5, §6, §7

The next assay addresses T4, Human FGL1 protein (Homo sapiens, UniProt Q08830).
T4 sequence (Q08830 23-312): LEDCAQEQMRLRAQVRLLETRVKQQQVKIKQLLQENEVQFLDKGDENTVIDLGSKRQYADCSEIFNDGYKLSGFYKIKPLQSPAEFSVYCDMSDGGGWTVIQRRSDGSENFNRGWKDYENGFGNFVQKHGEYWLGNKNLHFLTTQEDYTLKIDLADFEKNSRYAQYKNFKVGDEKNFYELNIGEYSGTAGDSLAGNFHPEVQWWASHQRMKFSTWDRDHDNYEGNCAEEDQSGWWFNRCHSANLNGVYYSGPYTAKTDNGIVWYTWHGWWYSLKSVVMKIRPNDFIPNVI
In words: SPR interaction assay, human FGL1. The conditions noted are these: SPR. Type of assay: binding.
Text: as §1, §3, §4

Take `COc1ccc2cc1-c1cc(ccc1OC)C(=O)CCCCCC2=O` [Compound 1, 1^6,2^6-dimethoxy-1,2(1,3)-diphenylcyclononane-3,9-dione]: the inhibition at 10 µM on LAG3/MHCII turned out to be 25.7%.
With `O=C1CCCCCC(=O)c2ccc(O)c(c2)-c2cc1ccc2O` [Compound 2, 1^6,2^6-dihydroxy-1,2(1,3)-diphenylcyclononane-3,9-dione], at LAG3/MHCII, the inhibition at 10 µM was 45.9%.
At LAG3/MHCII, `O=C1CCCCCC(=O)c2ccc(OC3CCCC3)c(c2)-c2cc1ccc2O` [Compound 3] displayed an IC50 of 24.2 µM.
The molecule `CCCCCOc1ccc2cc1-c1cc(ccc1OCCCCC)C(=O)CCCCCC2=O` [Compound 5] showed an IC50 at LAG3/MHCII of 33.2 µM.
On the same count and under the same terms, the figure for `CCCCCCCOc1ccc2cc1-c1cc(ccc1OCCCCCCC)C(=O)CCCCCC2=O` [Compound 6] is 25.7 µM; for `COCCCCOc1ccc2cc1-c1cc(ccc1OCCCCOC)C(=O)CCCCCC2=O` [Compound 7] it is 35.4 µM.
Consider `CCCCCCOc1ccc(C(=O)O)cc1-c1cc(C(=O)NCCCNC(=O)C(F)(F)F)ccc1OCCCCCC` [Compound 9], for which the IC50 on LAG3/MHCII came to 5.67 µM. The “interaction with the human LAG3 protein” value at Human LAG3 protein is “interacts with the human LAG3 protein”. Besides, the Rmax on Human LAG3 protein (ligand Human LAG3 protein) is reported as 129.5 RU; at Mouse LAG3 protein (ligand Mouse LAG3 protein), 8.130 E+4 RU; at Human FGL1 protein (ligand FGL1 protein), 3.346 E+5 RU. Also, on Human LAG3 protein (ligand Human LAG3 protein, Compound 9 fitted in steady-state mode), the Kd stood at 324 µM. For the same molecule, the Note result at Human LAG3 protein (ligand Human LAG3 protein, bound or not bound) is given as “Bound”; on Mouse LAG3 protein (ligand Mouse LAG3 protein, bound or not bound) it was “Not bound”; at Human FGL1 protein (ligand FGL1 protein, bound or not bound), “Not bound”. Besides, on Mouse LAG3 protein, the “interaction with the mouse LAG3 protein” value is reported as “does not interact with the mouse LAG3 protein”. In addition, the “interaction with the human FGL1 protein” value at Human FGL1 protein is “does not interact with the human FGL1 protein”.
`CCCCCCOc1ccc(C(=O)O)cc1-c1cc(C(=O)NCCCCCNC(=O)C(F)(F)F)ccc1OCCCCCC` [Compound 10] came in with an IC50 at LAG3/MHCII of 9.91 µM.
Take `CCCCCCOc1ccc(C(=O)O)cc1-c1cc(C(=O)NCCNC(=O)C(F)(F)F)ccc1OCCCCCC` [Compound 11]: the IC50 on LAG3/MHCII came out at 7.96 µM.
`CCCCCCOc1ccc(C(=O)NCCCCN)cc1-c1cc(C(=O)OC)ccc1OCCCCCC` [Compound 12] displayed an IC50 at LAG3/MHCII of over 100 µM.
